Here are results for 16 molecules from patent US9777003B2, “Tricyclic heterocycles as bet protein inhibitors” (Incyte Corporation, priority 2013, dated 2017).

Test [1] deals with KMS.12.BM cells. The experiment in a line: KMS.12.BM cell viability assay (Cell Titer-GLO, ATP quantitation). The note with it: KMS.12.BM human myeloma cells, 3 days, concentration required for 50% cell death, read-out: KMS cellular IC50. The class given is cell-based. Here is the method: KMS.12.BM cell line (human myeloma) was purchased from JCRB (Osaka, Japan) and maintained in RPMI with 10% FBS culture medium. To measure the cytotoxic activity of the compounds through ATP quantitation, the KMS.12.BM cells are plated in the RPMI culture medium at 5000 cells/well/per 100 μL into a 96-well polystyrene clear black tissue culture plate (Greiner-bio-one through VWR, NJ), in the presence or absence of a concentration range of test compounds. After 3 days, […] Cell Titer-GLO Luminescent (Promega, Madison, Wis.) cell culture agent is added to each well for 10 minutes at room temperature to stabilize the luminescent signal. This determines the number of viable cells in culture based on quantitation of the ATP present, which signals the presence of metabolically active cells. Luminescence is measured with the Top Count 384 (Packard Bioscience through Perkin Elmer, Boston, Mass.). […] IC50 data for the Examples is presented in Table 4 as determined by Assay B1.
(In general: ATP-based viability assays read luminescence as a measure of living cells.)

Test [2] has as its target BRD4-BD1 (Homo sapiens (Human), UniProt O60885). The test is described as follows: BRD4 AlphaScreen assay, BRD4-BD1. The class given is binding. The note with it: biotin-labeled tetra-acetylated histone H4 peptide, 75 min, room temperature, read-out: BRD4 BD-1 enzyme IC50. In short, it runs like this: (§1)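 Bromodomain–H4Ac4 peptide (50 nM) proximity assay; BD1 at 3.8 nM, BD2 at 20 nM. Reaction 75 min RT, bead detection 75 min in the dark, IC50 by dose-response fit.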
For orientation: Bead proximity is the source of the signal in Alpha formats.

The target of test [3] is BRD4-BD2 (Homo sapiens (Human), UniProt O60885). The test is described as follows: BRD4 AlphaScreen assay, BRD4-BD2. The class given is binding. The note with it: biotin-labeled tetra-acetylated histone H4 peptide, 75 min, room temperature, read-out: BRD4 BD-2 enzyme IC50. The gist of the method:
as §1

Structures can show the parent of a compound that is named as a salt. Where two headings read alike, the source gives them in different places.

Usually IC50 stands for the point on the concentration scale where inhibition reaches its midpoint. Take `Cc1cc2c(cc(N[C@@H]3CCN(C)[C@H](C)C3)c3nnc(C)n32)n1Cc1ccccc1` (mixture of isomers) [Example 224, 6-Benzyl-N-[(2S,4S)-1,2-dimethylpiperidin-4-yl]-1,7-dimethyl-6H-pyrrolo[2,3-e][1,2,4]triazolo[4,3-a]pyridin-4-amine and 6-Benzyl-N-[(2R,4R)-1,2-dimethylpiperidin-4-yl]-1,7-dimethyl-6H-pyrrolo[2,3-e][1,2,4]triazolo[4,3-a]pyridin-4-amine]: the IC50 in test [1] was at most 1000 nM.

`Cc1nnc2ccc3c(cc(-c4cc[nH]n4)n3Cc3cccc(CN4CCC4)c3)n12` [Example 182, 6-[3-(Azetidin-1-ylmethyl)benzyl]-1-methyl-7-(1H-pyrazol-3-yl)-6H-pyrrolo[2,3-e][1,2,4]triazolo[4,3-a]pyridine tris(trifluoroacetate) Salt]: the IC50 in test [2] was at most 100 nM; in test [3], at most 100 nM; in test [1] (72 h), at most 1000 nM.

For the molecule `CNC(=O)c1cc2c(ccc3nnc(C)n32)n1Cc1cccc(CN2CCC2)c1` [Example 122, 6-[3-(Azetidin-1-ylmethyl)benzyl]-N,1-dimethyl-6H-pyrrolo[2,3-e][1,2,4]triazolo[4,3-a]pyridine-7-carboxamide bis(trifluoroacetate) Salt], the IC50 in test [2] and in test [3] was at most 100 nM throughout.

Take `Cc1cc2c(cc(NCC3CCN(C(=O)OC(C)(C)C)CC3)c3nnc(C)n32)n1Cc1ccccc1` [Example 242, tert-Butyl 4-((6-benzyl-1,7-dimethyl-6H-pyrrolo[2,3-e][1,2,4]triazolo[4,3-a]pyridin-4-ylamino)methyl)piperidine-1-carboxylate]: the IC50 in test [2] was 100 to 1000 nM; in test [3], at most 100 nM.

`Cc1cc2c(cc(NC(=O)C(C)C)c3nnc(C)n32)n1Cc1ccccc1` [Example 270, N-(6-Benzyl-1,7-dimethyl-6H-pyrrolo[2,3-e][1,2,4]triazolo[4,3-a]pyridin-4-yl)isobutyramide]: the IC50 in test [2] and in test [3] was at most 100 nM each time.

Regarding `CCn1cnc(-c2cc3c(ccc4nnc(C)n43)n2Cc2ccccc2)c1` [Example 80, 6-benzyl-7-(1-ethyl-1H-imidazol-4-yl)-1-methyl-6H-pyrrolo[2,3-e][1,2,4]triazolo[4,3-a]pyridine], the IC50 in test [2] and in test [3] was at most 100 nM each time.

Consider `Cc1nnc2ccc3c(cc(-c4ccn(CCC#N)n4)n3Cc3cccc(CN4CCC4)c3)n12` [Example 183, 3-(3-{6-[3-(Azetidin-1-ylmethyl)benzyl]-1-methyl-6H-pyrrolo[2,3-e][1,2,4]triazolo[4,3-a]pyridin-7-yl}-1H-pyrazol-1-yl)propanenitrile bis(trifluoroacetate) Salt], for which the IC50 in test [2] and in test [3] was at most 100 nM in each case.

Take `CCn1ccc(-c2cc3c(ccc4nnc(C)n43)n2Cc2cc(Cl)cc(CN3CCC3)c2)n1` [Example 188, 6-(3-(Azetidin-1-ylmethyl)-5-chlorobenzyl)-7-(1-ethyl-1H-pyrazol-3-yl)-1-methyl-6H-pyrrolo[2,3-e][1,2,4]triazolo[4,3-a]pyridine tris(trifluoroacetate) Salt]: the IC50 in test [2] and in test [3] was at most 100 nM throughout.

Take `Cc1nnc2ccc3c(cc(-c4ccn(C5CN(S(=O)(=O)C6CC6)C5)n4)n3Cc3cccc(Cl)c3)n12` [Example 165, 6-(3-Chlorobenzyl)-7-{1-[1-(cyclopropylsulfonyl)azetidin-3-yl]-1H-pyrazol-3-yl}-1-methyl-6H-pyrrolo[2,3-e][1,2,4]triazolo[4,3-a]pyridine Trifluoroacetate Salt]: the IC50 in test [2] and in test [3] was at most 100 nM in each case.

Take `Cc1nnc2ccc3c(cc(-c4ccn(CCC#N)n4)n3Cc3ccccc3)n12` [Example 78, 3-[3-(6-benzyl-1-methyl-6H-pyrrolo[2,3-e][1,2,4]triazolo[4,3-a]pyridin-7-yl)-1H-pyrazol-1-yl]propanenitrile]: the IC50 in test [2] and in test [3] was at most 100 nM each time.

Take `Cc1cc2c(cc(NC3CCN(C)CC3)c3nnc(C)n32)n1Cc1ccccc1` [Example 207, 6-Benzyl-1,7-dimethyl-N-(1-methylpiperidin-4-yl)-6H-pyrrolo[2,3-e][1,2,4]triazolo[4,3-a]pyridin-4-amine]: the IC50 in test [2] and in test [3] was at most 100 nM each time.

Consider `Cc1cc2c(cc(NCCO)c3nnc(C)n32)n1Cc1ccccc1` [Example 210, 2-[(6-Benzyl-1,7-dimethyl-6H-pyrrolo[2,3-e][1,2,4]triazolo[4,3-a]pyridin-4-yl)amino]ethanol], for which the IC50 in test [2] and in test [3] was at most 100 nM in each case.

As for `Cc1nnc2ccc3c(cc(-c4ccccn4)n3Cc3ccccc3)n12` [Example 68, 6-benzyl-1-methyl-7-pyridin-2-yl-6H-pyrrolo[2,3-e][1,2,4]triazolo[4,3-a]pyridine], the IC50 in test [2] is 100 to 1000 nM; in test [3], at most 100 nM.

`Cc1cc2c(cc(NC(C)C)c3nnc(C)n32)n1Cc1ccccc1` [Example 263, 6-Benzyl-N-isopropyl-1,7-dimethyl-6H-pyrrolo[2,3-e][1,2,4]triazolo[4,3-a]pyridin-4-amine]: the IC50 in test [2] and in test [3] was at most 100 nM each time.

As for `CCNC(=O)c1cc2c(ccc3nnc(C)n32)n1Cc1ccccc1` [Example 59, 6-benzyl-N-ethyl-1-methyl-6H-pyrrolo[2,3-e][1,2,4]triazolo[4,3-a]pyridine-7-carboxamide], the IC50 in test [2] and in test [3] was at most 100 nM throughout.

Turning to `CC(=O)N1CC(n2ccc(-c3cc4c(ccc5nnc(C)n54)n3Cc3cccc(Cl)c3)n2)C1` [Example 108, 7-[1-(1-acetylazetidin-3-yl)-1H-pyrazol-3-yl]-6-(3-chlorobenzyl)-1-methyl-6H-pyrrolo[2,3-e][1,2,4]triazolo[4,3-a]pyridine], the IC50 in test [2] and in test [3] was at most 100 nM in each case.
